Results taken from patent publication EP0982027A1, “Taxoid derivatives for treating abnormal cell proliferation of the brain” (RHONE-POULENC RORER S.A., priority 1998, dated 2000).
Read-outs that look alike come from different tables or passages of the source.

Assay: in vivo
Set-up: species or system female C3H/HeN mice
Details: mouse; for concentration at 6 h: 6h after dose; for concentration at 8 h: 8h after dose; for concentration at 14 h: 14h after dose; for concentration at 24 h: 24 h after dose; for concentration at 48 h: 48 h after dose; for concentration at 5 min: 5 min after dose; for concentration at 0.25 h: 15 min after dose; for concentration at 0.5 h: 0.5h after dose; for concentration at 0.75 h: 0.75h after dose; for concentration at 1 h: 1h after dose; for Vd: read-out: Vdss; for AUC(0-inf): mean level data
Method: Groups of female C3H/HeN mice received the product by the intravenous route as a bolus at a dose level of 40 mg.kg^-1 equivalent to 120 mg.m^-2. Blood and brain samples were obtained from all dosed animals sacrificed at intervals up to 72 hours post dose. Brain and corresponding plasma samples have been assayed for product Ia content by an LC-MS/MS assay.
• Formulation: 2.25 mg.ml^-1 solution containing 5 % Polysorbate 80, 5 % ethanol and 90 % of an aqueous 5 % glucose solution. […]
• Sampling : Blood by cardiac puncture and liver and brain by dissection after CO2 sacrifice • Sample Times : at 2, 5, 15, 30, 45 minutes, 1, 2, 4, 6, 8, 14, 24, 48 and 72 hours post dose.
Whole blood was collected into heparinised tubes and corresponding plasma samples were obtained by centrifugation and frozen immediately at -20°C. Tissues were blotted, weighed and frozen immediately at -20°C. All samples were dispatched frozen for analysis. Upon receipt, samples were stored frozen at approximately -18°C pending analysis.
• Detection: LC-MS/MS (Sciex API III plus) in turbo-ionspray mode
The following MS conditions were applied:
Column: 75 x 4.6 mm Supelcosil ABZ plus (3 µm). Mobile phase: Acetonitrile/methanol/ammonium acetate (10mM); 40/25/35 v/v/v. Flow rate : 1 ml.min^-1. Temperature : Ambient. Extraction : Plasma: Add 100 µl of acetonitrile to sample (50 µl). Vortex, centrifuge, remove supernatant, add 100 µl of mobile phase and inject 150 µl. Brain : Add 100 µl of acetonitrile to homogenised sample (100 mg of a 1:1 w/w brain with water homogenate) and vortex. Add 1ml of diethyl ether, vortex, centrifuge, remove organic layer and dry under N2. Reconstitute in 200 µl of mobile phase and inject 150 µl. Calibration standards: Plasma : Nine at concentrations of 5, 10, 20, 50, 100, 200, 300, 400 & 500 ng.ml^-1 (product Ia). Prepared by adding suitable aliquots of the product (concentrations = 0.1, 1 or 10 µg.ml^-1) in ethanol to 0.5 ml aliquots of mouse plasma. Each sample was vortexed following drug addition; a 50 µl aliquot was then removed for assay. Brain : Eleven at concentrations of 10, 20, 30, 100, 200, 300, 400, 500, 1000, 2500 & 5000 ng.g^-1 in homogenised mouse brain (1:1 w/w brain with water). Prepared by adding suitable aliquots of the product (concentrations = 1, 10 or 100 µg.ml^-1) in ethanol to 0.5, 1, 3 or 4 g of homogenised mouse brain. Each sample was vortexed following drug addition and a 100 mg aliquot was then removed for assay. Retention times: Drug; product Ia: ∼2.3 min. Extraction efficiency : Plasma : ca.58 % at 200 ng.ml^-1. Brain : ca.41 % at 500 ng.g^-1 and 39 % at 1000 ng.g^-1.
A biexponential equation was fitted to the profiles using an interactive linear least-square algorithm as part of the SIPHAR package.
AUC0-∞: Area under the plasma or brain concentration versus time curve from t=0 (start of infusion) to infinity. Initial T1/2: Initial (distribution) half-life. Terminal T1/2: Terminal (elimination) half-life (should be regarded as an estimate only being dependent on sampling frequency in the terminal phase and assay sensitivity). ClT: Total plasma clearance. Vdss: Volume of distribution at steady state. n.a.: Not applicable.

[1] = brain, iv, 40 mg/kg, 40 mg.kg^-1 i.v., MEAN, read-out: Brain product Ic concentration
[2] = brain, iv, 40 mg/kg, 40 mg.kg^-1 i.v., individual animals IV1-IV4, read-out: Brain product Ic concentration
[3] = plasma, iv, 40 mg/kg, 40 mg.kg^-1 i.v., MEAN, read-out: Plasma product Ic concentration
[4] = plasma, iv, 40 mg/kg, 40 mg.kg^-1 i.v., individual animals IV1-IV4, read-out: Plasma product Ic concentration
[5] = plasma, iv, 40 mg/kg, Plasma+, calculated from values ≥ l.o.d. of 4 ng.ml^-1, 40 mg.kg^-1 i.v.

For `CO[C@H]1C(=O)[C@]2(C)[C@@H](OC)C[C@H]3OC[C@@]3(OC(C)=O)[C@H]2[C@H](OC(=O)c2ccccc2)[C@]2(O)C[C@H](OC(=O)[C@H](O)[C@@H](NC(=O)OC(C)(C)C)c3ccccc3)C(C)=C1C2(C)C` [product Ia, 4α-acetoxy-2α-benzoyloxy-5β,20-epoxy-1β-hydroxy-7β,10β-dimethoxy-9-oxo-11-taxen-13α-yl (2R,3S)-3 tert-butoxycarbonylamino-2-hydroxy-3-phenylpropionate], the concentration at 4 h (brain, iv, 40 mg/kg, 40 mg.kg^-1 i.v., 4h after dose, individual animals IV1-IV4, read-out: Brain product Ic concentration) was 7910 ng/g, the concentration at 6 h [1] was 6430 ng/g and the concentration at 8 h [1] was 8250 ng/g. It also gave a concentration at 8 h [2] of 9070 ng/g, a concentration at 14 h [1] of 9130 ng/g and a concentration at 14 h [2] of 9620 ng/g. The concentration at 24 h [1] was 8670 ng/g, the concentration at 24 h [2] was 7900 ng/g and the concentration at 48 h [1] was 7720 ng/g. It also gave a concentration at 48 h [2] of 6660 ng/g, a concentration at 72 h (brain, iv, 40 mg/kg, 40 mg.kg^-1 i.v., 72 h after dose, MEAN, read-out: Brain product Ic concentration) of 5250 ng/g and a concentration at 72 h (brain, iv, 40 mg/kg, 40 mg.kg^-1 i.v., 72 h after dose, individual animals IV1-IV4, read-out: Brain product Ic concentration) of 5900 ng/g. The concentration at 2 min (brain, iv, 40 mg/kg, 40 mg.kg^-1 i.v., at 2 mins, read-out: brain level at the first sampling time) was 7900 ng/g, the concentration at 72 h (brain, iv, 40 mg/kg, 40 mg.kg^-1 i.v., at 72h, read-out: brain concentration at the last sampling time) was 5300 ng/g and the concentration at 2 min (plasma, iv, 40 mg/kg, 40 mg.kg^-1 i.v., 2 min after dose, MEAN, read-out: Plasma product Ic concentration) was 46900 ng/mL. It also gave a concentration at 2 min (plasma, iv, 40 mg/kg, 40 mg.kg^-1 i.v., 2 min after dose, individual animals IV1-IV4, read-out: Plasma product Ic concentration) of 53000 ng/mL, a concentration at 5 min [3] of 34300 ng/mL and a concentration at 5 min [4] of 36700 ng/mL. The concentration at 0.25 h [3] was 20500 ng/mL, the concentration at 0.25 h [4] was 20500 ng/mL and the concentration at 0.5 h [3] was 10400 ng/mL. It also gave a concentration at 0.5 h [4] of 10800 ng/mL, a concentration at 0.75 h [3] of 9090 ng/mL and a concentration at 0.75 h [4] of 7130 ng/mL. The concentration at 1 h [3] was 6550 ng/mL, the concentration at 1 h [4] was 6020 ng/mL and the concentration at 4 h (plasma, iv, 40 mg/kg, 40 mg.kg^-1 i.v., 4h after dose, MEAN, read-out: Plasma product Ic concentration) was 962 ng/mL. It also gave a concentration at 4 h (plasma, iv, 40 mg/kg, 40 mg.kg^-1 i.v., 4h after dose, individual animals IV1-IV4, read-out: Plasma product Ic concentration) of 1070 ng/mL, a concentration at 6 h [3] of 362 ng/mL and a concentration at 6 h [4] of 449 ng/mL. The concentration at 8 h [3] was 188 ng/mL, the concentration at 8 h [4] was 204 ng/mL and the concentration at 14 h [3] was 56 ng/mL. The concentration at 14 h [4] was 65 ng/mL, the concentration at 24 h [3] was 16 ng/mL and the concentration at 48 h [3] was 2 ng/mL. It also gave a concentration at 4 h (plasma, iv, 40 mg/kg, 40 mg.kg^-1 i.v., within 4h, read-out: plasma level) of under 1000 ng/mL, a half-life (plasma, iv, 40 mg/kg, Plasma#, calculated from values ≥ b.l.q. of 20 ng.ml^-1, 40 mg.kg^-1 i.v., read-out: Initial T1/2 (converted)) of 12 min and a half-life (plasma, iv, 40 mg/kg, Plasma#, calculated from values ≥ b.l.q. of 20 ng.ml^-1, 40 mg.kg^-1 i.v., read-out: Terminal T1/2 (converted)) of 120 min. It also gave a Vd (plasma, iv, 40 mg/kg, Plasma#, calculated from values ≥ b.l.q. of 20 ng.ml^-1, 40 mg.kg^-1 i.v.) of 2.4 L/kg, an AUC(0-inf) [5] of 30000 ng·h/mL and a half-life (plasma, iv, 40 mg/kg, Plasma+, calculated from values ≥ l.o.d. of 4 ng.ml^-1, 40 mg.kg^-1 i.v., read-out: Initial T1/2 (converted)) of 42 min. The half-life (plasma, iv, 40 mg/kg, Plasma+, calculated from values ≥ l.o.d. of 4 ng.ml^-1, 40 mg.kg^-1 i.v., read-out: Terminal T1/2 (converted)) was 372 min, the Vd [5] was 1.9 L/kg and the AUC(0-inf) (plasma, iv, 40 mg/kg, calculated from values ≥ b.l.q. of 20 ng.ml^-1, 40 mg.kg^-1 i.v.) was 29800 ng·h/mL. The half-life (plasma, iv, 40 mg/kg, plasma, 40 mg.kg^-1 i.v., read-out: initial half-life) was at most 42 min, the “levels in the brain relative to those in the plasma” value (on the basis of AUC0-∞ values, 40 mg.kg^-1 i.v.) was “about twenty times” and the concentration at 24 h (plasma, iv, 40 mg.kg^-1 i.v., individual animals IV1-IV4, values flagged blq (below limit of accurate quantification, 20 ng.ml^-1), read-out: Plasma product Ic concentration) was 18 ng/mL. The concentration at 48 h (plasma, iv, 40 mg.kg^-1 i.v., individual animals IV1-IV4, blq = below 20 ng.ml^-1, n.d. = not detected (≤ l.o.d. of 4 ng.ml^-1), read-out: Plasma product Ic concentration) was 4 ng/mL, the Cmax at 2 min (plasma, iv, 40 mg.kg^-1 i.v., peak at 2 minutes, read-out: plasma peak level (mean)) was 46900 ng/mL and the “penetration of the blood brain barrier” value (post-i.v. administration) was “readily penetrate the blood brain barrier”.
